Holding throughout (assay type): binding, mouse (Balb/c)
Settings in all cases: for Cross-reactivity: (triasulfurone conc. for 50% inhibition/analog conc. for 50% inhibition) × 100

The test system of one test is MAb 4134-40-1. Put plainly: competitive ELISA, triasulfurone and analogs with MAb 4134-40-1 (Table 1). From the text:
(§1) As defined within the context of this invention, the percentage of cross-reactivity is represented by the following equation: [triasulfurone concentration for 50% inhibition (I50)/concentration of the triasulfurone analogs for 50% inhibition (I50)]×100.
(§2) The I50 value can be determined, for example, by means of a competitive ELISA assay (see Example 8). In that case the I50 value corresponds, for example, to the antigen concentration that leads to a 50% inhibition of the binding of the antibody to the carrier-bound antigen.
(§3) The detection of triasulfurone is effected by means of a two-step competitive ELISA test.
(§4) BSA-conjugated hapten, prepared in accordance with Example 1.3.1 or 1.3.2, in a 50mM sodium carbonate buffer (pH 9.6) (200 ng of BSA-conjugated hapten/100 μl of sodium carbonate buffer) is first of all adsorbed on microtitre plates (for example Dynatech, type M 129A) and incubated overnight at a temperature of 4° C. The plates are then washed five times with PBS buffer enriched with 0.1% (v/v) polysorbate 20 (Tween 20) (PBS Tween).
(§5) The remaining free binding sites of the solid carder material are then blocked by the addition of PBS-BSA in the form of a 1% (w/v) solution. After incubation for two hours at 22° C. the plates are washed again with PBS Tween (0.1%).
(§6) 50 μl of the supernatant of the previously cloned hybridoma cells (in a dilution of 1:2000 or 1:4000) or 50 μl of the previously purified monoclonal antibodies (40-120 ng/ml) are incubated a) with 950 μl of a standard solution containing an increasing amount of triasulfurone or of triasulfurone analogs, b) with triasulfurone-containing water samples or c) with triasulfurone-containing soil extracts. [All dilutions are carried out in PBS Tween (0.1%)].
(§7) After an incubation period of 1 hour at room temperature (22° C.), 200 μl of the antigen/antibody mixture are added to each well in the microtitre plate and the whole batch is incubated for a further one hour. The wells are then washed five times with PBS Tween (0.1%) and charged with 100 μl/well of goat anti-mouse IgG antibody that is conjugated to alkaline phosphatase (dilution 1:1500), and incubated for a period of 1.5 hours.
(§8) After washing again, 150 μl/well of the substrate p-nitrophenyl phosphate dissolved in 1 mg/ml of diethanolamine buffer ([…], pH 9.8, enriched with 0.5 mM MgCl2 ×6H2 O) are added to the wells.
(§9) The intensity of the colour reaction that has occurred is determined at a wavelength of 405 nm. […] All the samples are determined in triplicate.
(§10) In order to determine the amount of triasulfurone present in a sample, first of all a calibration curve is produced (FIG. 1), B/Bo×100 being plotted against the concentration of inhibitor. (Bo represents the absorption capacity measured without the addition of a triasulfurone inhibitor to the antibody, and B is the absorption capacity when triasulfurone inhibitors at various concentrations are added). The I50 value indicates the concentration of the antigen at which the binding of antibody to the solid phase is inhibited by 50%. The I50 value is determined using an ENZFITTER (Leatherbarrow, Elsevier-Biosoft) curve-calculation program based on a four-parameter logistical curve (Raab GM, 1983) and specially adapted to the prevailing conditions. The quantitative determination of triasulfurone in soil or water samples within the context of ELISA is also carried out using the ENZFITTER program, the adaptation of the curve being based on standards that run on any microtitre plate.
(In an ELISA, binding on a coated surface is turned into a signal by an enzyme label.)

The subject of a further test is MAb 4147-19-4. Kind of test: competitive ELISA, triasulfurone and analogs with MAb 4147-19-4 (Table 1).
Description: as §1, §2, §3, §4, §5, §6, §7, §8, §9, §10

For a further test, the system named is MAb 4149-1-1. Kind of test: competitive ELISA, triasulfurone and analogs with MAb 4149-1-1 (Table 1).
Description: as §1, §2, §3, §4, §5, §6, §7, §8, §9, §10

Consider four compounds from patent publication US5359135A, “Triasulfurone compounds” (priority 1990, dated 1994).

On to `NC(=O)NS(=O)(=O)c1ccccc1OCCCl` [S], for which the “I50 (inhibitor concentration that reduces the ELISA signal by 50% in comparison to the control)” value in the test with MAb 4134-40-1 was 6.0 ng/mL; in the test on MAb 4147-19-4, 2.6 ng/mL; with MAb 4149-1-1, 0.02 ng/mL. The figures for the Cross-reactivity in the test on MAb 4134-40-1, with MAb 4147-19-4 and with MAb 4149-1-1 were 120.0%, 3.5% and 250.00%, respectively.

Take `CCCOC(=O)NS(=O)(=O)c1ccccc1OCCCl` [R]: the “I50 (inhibitor concentration that reduces the ELISA signal by 50% in comparison to the control)” value with MAb 4134-40-1 was found to be 2.1 ng/mL; in the test on MAb 4147-19-4, 1.9 ng/mL; in the test with MAb 4149-1-1, 0.02 ng/mL. Further, the Cross-reactivity amounted to 342.9% in the test with MAb 4134-40-1, 4.7% in the test on MAb 4147-19-4 and 250.00% in the test with MAb 4149-1-1.

In the case of `COC(=O)c1ccccc1S(=O)(=O)NC(=O)Nc1nc(C)nc(OC)n1` [O, methsulfurone-methyl], the “I50 (inhibitor concentration that reduces the ELISA signal by 50% in comparison to the control)” value was over 1000 ng/mL in the test on MAb 4134-40-1, 81.5 ng/mL in the test with MAb 4147-19-4 and 600 ng/mL with MAb 4149-1-1. Also, the Cross-reactivity is reported as under 0.7% in the test on MAb 4134-40-1, 0.1% with MAb 4147-19-4 and under 0.01% in the test with MAb 4149-1-1.

Regarding `COc1nc(C)nc(NC(=O)NS(=O)(=O)c2cc(O)ccc2OCCCl)n1` [A], the “I50 (inhibitor concentration that reduces the ELISA signal by 50% in comparison to the control)” value in the test on MAb 4134-40-1 was 550 ng/mL; in the test with MAb 4147-19-4 it was 21.4 ng/mL; in the test on MAb 4149-1-1, 0.16 ng/mL. Moreover, the Cross-reactivity in the test on MAb 4134-40-1 turned out to be 1.3%; in the test with MAb 4147-19-4, 0.4%; in the test with MAb 4149-1-1 it was 31.3%.
